Entries after “also recorded” stand apart in the source; their conditions may differ. Marks after values point to notes of the source that are not given here.
How the values were obtained:
HL-60 cells = experiment: Cytotoxicity assay, Trypan blue exclusion test; assay type: cell-based, human; details: HL-60, 72 h
Description: Promyelocytic human leukaemia (HL-60) immortal cells originated from a person suffering myeloid leukaemia were grown as suspension cultures in RPMI-1640 medium ([…], Sigma-Aldrich, St. Louis, MO, USA) supplemented with 10% heat-inactivated foetal bovine serum (S01805, Linus, Madrid, Spain), L-glutamine 2 mM (G7513, Sigma-Aldrich, St. Louis, MO, USA) and 1× antibiotic-antimycotic solution from a 100× stock solution containing 10,000 units of penicillin, 10 mg of streptomycin and 25 μg of amphotericin B per mL ([…], Sigma-Aldrich, St. Louis, MO, USA). Cells were incubated at 37 °C in a 80% humidified atmosphere 5% CO2. Cultures were plated at 2.5 × 10^4 cells/mL density in 10 mL culture bottles and passed every 2 days. Trypan blue exclusion test was used to determine the cell viability exerted by the assayed compounds, according to our standard procedures. […] After culture, cells were stained with a 1:1 volume ratio of Trypan blue dye (T8154, Sigma-Aldrich, St. Louis, MO, USA) and counted in a Neubauer chamber at 100× magnification. The survival percentage of each treatment compared with the control was recorded in three independent replicates. Data are expressed as mean ± standard deviation of the mean (SEM).

Drosophila melanogaster [1] = experiment: Chronic treatments: lifespan and healthspan assays; assay type: in vivo; details: for Healthspan (80th Percentile) / Mean Lifespan: chronic, mean ±SE
Description: Flies used in the lifespan assays show the same genetic background those used in the genotoxicity assays in order to compare both result. The treated adults consisted of the F1 progeny from mwh and flr^3 parental strains produced by a 24 h eggs-lying in yeast medium. The same compounds and concentrations as in the toxicity/genotoxicity experiments were assayed. Lifespan assays were carried out at 25 °C according to the procedure described by Fernandez-Bedmar et al.. Briefly, synchronized 72 ± 12-h-old trans-heterozygous larvae were washed in distilled water, collected and transferred in groups of 100 individuals into test vials containing 0.85 g Drosophila Instant Medium and 4 mL of the different concentrations of the compounds to be assayed. Emerged adults from pupae were collected under CO2 anaesthesia and placed in groups of 25 individuals of the same sex into sterile vials containing 0.21 g Drosophila Instant Medium and 1 mL of different concentrations of the compounds to be tested. Flies were chronically treated during all their life. The number of survivors was determined twice a week in three different replicates.

Drosophila melanogaster [2] = experiment: Antigenotoxicity, wing spot test, combined treatment with hydrogen peroxide; assay type: in vivo; parameters: key to Total Spots, statistical diagnosis (Kastenbaum-Bowman test): * (positive); Δ (negative); β (inconclusive) vs. respective positive control
Description: All inconclusive and positive results (p > 0.05) were analysed with the nonparametric U-test of Mann, Whitney and Wilcoxon (α = β = 0.05). Anter et al. described the antigenotoxicity method conducted in D. melanogaster. […] Single and twin spots per wing were also recorded and compared with the concurrent negative control as described before. Finally, the inhibition percentages (IP) for the combined treatments were calculated as described by Abraham: IP = [(genotoxin alone-combined treatment)/genotoxin alone] × 100.

[3] = system: Sat-α repetitive sequences of HL-60 cells; experiment: Methylation status by qMSP, Sat-α; assay type: cell-based, human; details: HL-60, 5 h, both tested concentrations of TAU
Description: (§1) Then, DNA was extracted similarly to previously described DNA fragmentation assay. After that, the DNA was converted with bisulphite (EZ DNA Methylation-Gold™ Kit, Zymo Research, Irvine, CA, USA). Bisulphite-modified DNA was used for fluorescence-based real-time quantitative Methylation-Specific PCR (qMSP) using 5 µM of each forward and reverse primer (Isogen Life Science BV, Utrecht, The Netherlands), 2 µL of iTaq™ Universal SYBR® Green Supermix (Bio-Rad Laboratories, Inc., Hercules, CA, USA); it contains antibody-mediated hot-start iTaq DNA polymerase, dNTPs, MgCl2, SYBR® Green I dye, enhancers, stabilizers and a blend of passive reference dyes including ROX and fluorescein) and 25 ng of bisulphite converted genomic DNA.
(§2) PCR conditions included initial denaturalisation at 95 °C for 3 min and amplification which consisted of 45 cycles at 95 °C for 10 s, 60 °C for 15 s and 72 °C for 15 s, taking picture at the end of each elongation cycle. After that, melting curve was determined increasing 0.5 °C each 0.05 s from 60 °C to 95 °C and taking pictures.
QMSP was carried out in 48 well plates in MiniOpticon Real-Time PCR System (MJ Mini Personal Thermal Cycler, Bio-Rad) and were analysed by Bio-Rad CFX Manager 3.1 Software. The housekeeping Alu-C4 was used as a reference to correct for total DNA input. […] Each sample was analysed in triplicate. […]

Drosophila melanogaster [4] = experiment: Antitoxicity assay, combined treatment with 0.15 M H2O2
Description: Toxicity was assayed according to our standard protocols. CRB and SFRB were tested at five concentrations: 1, 4, 8.12, 32.5 and 130 mg/mL and 0.16, 0.625, 1.25, 5 and 20 mg/mL, respectively. […] Tested groups consisted of larvae fed with Drosophila Instant Medium (Formula 4–24, Carolina Biological Supply, Burlington, NC, USA) supplemented with the assessed compounds concentrations. Emerging adults of all groups were counted and toxicity was determined as the percentage of hatched individuals in each treatment compared with the negative control.

[5] = system: LINE-1 repetitive sequences of HL-60 cells; experiment: Methylation status by qMSP, LINE-1; assay type: cell-based, human; details: HL-60, 5 h, TAU highest concentration (32 mM)
Description: as §1, §2
QMSP was carried out in 48 well plates in MiniOpticon Real-Time PCR System (MJ Mini Personal Thermal Cycler, Bio-Rad) and were analysed by Bio-Rad CFX Manager 3.1 Software. The housekeeping Alu-C4 was used as a reference to correct for total DNA input. Alu-C4 and the target repetitive elements Alu-M1, LINE-1 and Sat-α were obtained from Isogen Life Science (Utrecht, The Netherlands) and their sequences are shown in Table 4. Each sample was analysed in triplicate.
The results of each CT were obtained from each qMSP. Data were normalised with the housekeeping Alu C4 using the Nikolaidis et al. and Liloglou et al. comparative CT method (ΔΔCT). One-way ANOVA and post-hoc Tukey’s test are used to evaluate the differences between the tested compounds, repetitive elements and concentrations.

[6] = TAU 0.25 mM vs concurrent water control
[7] = TAU 1 mM vs concurrent water control
[8] = TAU 2 mM vs concurrent water control
[9] = TAU 8 mM vs concurrent water control
[10] = TAU 32 mM vs concurrent water control
[11] = TAU 1 mM + 0.15 M H2O2, No. of spots in parentheses
[12] = TAU 32 mM + 0.15 M H2O2, No. of spots in parentheses

NCCS(=O)(=O)O [TAU, 2-aminoethanesulfonic acid]
cell proliferation (HL-60 cells; 2 mM TAU): induced a decrease of cell proliferation | cytotoxic activity (HL-60 cells; any assayed concentration): did not show cytotoxic activity | IC50 (inhibitory concentration 50) (HL-60 cells; mean ± SD in Figure 3): not found | Healthspan Difference (%) (Drosophila melanogaster [1]; [6]): −7.3% | Mean Lifespan Difference (%) (Drosophila melanogaster [1]; [6]): 4.57% | Healthspan (80th Percentile) (Drosophila melanogaster [1]; TAU 0.25 mM): 34.98 ± 3.954 days | Mean Lifespan (Drosophila melanogaster [1]; TAU 0.25 mM): 67.94 ± 2.603 days | Healthspan Difference (%) (Drosophila melanogaster [1]; [7]): −20% | Mean Lifespan Difference (%) (Drosophila melanogaster [1]; [7]): 2.81% | Healthspan (80th Percentile) (Drosophila melanogaster [1]; TAU 1 mM): 30.22 ± 1.878 days | Mean Lifespan (Drosophila melanogaster [1]; TAU 1 mM): 66.81 ± 3.215 days | Healthspan Difference (%) (Drosophila melanogaster [1]; [8]): −6.4% | Mean Lifespan Difference (%) (Drosophila melanogaster [1]; [8]): −4.8% | Healthspan (80th Percentile) (Drosophila melanogaster [1]; TAU 2 mM): 35.357 ± 0.9 days | Mean Lifespan (Drosophila melanogaster [1]; TAU 2 mM): 61.83 ± 2.25 days | Healthspan Difference (%) (Drosophila melanogaster [1]; [9]): −2.6% | Mean Lifespan Difference (%) (Drosophila melanogaster [1]; [9]): 7.95% | Healthspan (80th Percentile) (Drosophila melanogaster [1]; TAU 8 mM): 36.8 ± 2.832 days | Mean Lifespan (Drosophila melanogaster [1]; TAU 8 mM): 70.142 ± 2.385 days | Healthspan Difference (%) (Drosophila melanogaster [1]; [10]): −3.2% | Mean Lifespan Difference (%) (Drosophila melanogaster [1]; [10]): 1.6% | Healthspan (80th Percentile) (Drosophila melanogaster [1]; TAU 32 mM): 36.57 ± 3.55 days | Mean Lifespan (Drosophila melanogaster [1]; TAU 32 mM): 66.04 ± 2.055 days | lifespan compared with concurrent control (Drosophila melanogaster [1]; all tested concentrations): did not significantly differ | IP (%) inhibition percentage (Drosophila melanogaster [2]; TAU 1 mM + 0.15 M H2O2): 70.6% | Large Simple Spots (>2 Cells) m = 5 (Drosophila melanogaster [2]; TAU 1 mM + 0.15 M H2O2): 0 clones per wing | Twin Spots m = 5 (Drosophila melanogaster [2]; TAU 1 mM + 0.15 M H2O2): 0 clones per wing | Small Single Spots (1–2 Cells) m = 2 (Drosophila melanogaster [2]; [11]): 0.125 (5) clones per wing | Total Spots m = 2 (Drosophila melanogaster [2]; [11]): 0.125 (5) clones per wing | Total Spots, statistical diagnosis (Kastenbaum-Bowman test) (Drosophila melanogaster [2]; TAU 1 mM + 0.15 M H2O2 vs positive control): * | IP (%) inhibition percentage (Drosophila melanogaster [2]; TAU 32 mM + 0.15 M H2O2): 38.1% | Twin Spots m = 5 (Drosophila melanogaster [2]; TAU 32 mM + 0.15 M H2O2): 0 clones per wing | Large Simple Spots (>2 Cells) m = 5 (Drosophila melanogaster [2]; [12]): 0.026 (1) clones per wing | Small Single Spots (1–2 Cells) m = 2 (Drosophila melanogaster [2]; [12]): 0.236 (9) clones per wing | Total Spots m = 2 (Drosophila melanogaster [2]; [12]): 0.263 (10) clones per wing | Total Spots, statistical diagnosis (Kastenbaum-Bowman test) (Drosophila melanogaster [2]; TAU 32 mM + 0.15 M H2O2 vs positive control): * | methylation status of satellite alpha sequences [3]: significantly hypermethylated | Survival (%) Combined Treatment (Drosophila melanogaster [4]; TAU 0.25 mM + 0.15 M hydrogen peroxide): 40.76% | Survival (%) Combined Treatment (Drosophila melanogaster [4]; TAU 1 mM + 0.15 M hydrogen peroxide): 57.69 * % | Survival (%) Combined Treatment (Drosophila melanogaster [4]; TAU 2 mM + 0.15 M hydrogen peroxide): 56.9 * % | Survival (%) Combined Treatment (Drosophila melanogaster [4]; TAU 8 mM + 0.15 M hydrogen peroxide): 40% | Survival (%) Combined Treatment (Drosophila melanogaster [4]; TAU 32 mM + 0.15 M hydrogen peroxide): 42.3% | methylation status of LINE-1 [5]: reduced this methylation status; also recorded: induced hypomethylation

Reference: publication PMC8069289 (Molecules, 2021)
